For series [1], the system named is R6/2 mice (mutHTT aggregates in the striatum). Briefly: Immunohistochemistry of mutHTT aggregates in striata of long-term treated R6/2 mice. It is filed as in vivo, mouse. To be noted: p.o. 11.5 weeks, Cpd. 3 65 mg/kg, Cpd. 8 16.25 mg/kg, versus vehicle controls. The text has this:
An in vivo model of Huntington's disease was used to evaluate the efficacy of Cpd. 3 and cpd. 8 in reducing mutHTT aggregate formation in the striatum. R6/2 mice are a B6CBA-Tg(HDexon1)62Gbp/3J Huntington's disease mouse model expressing exon 1 of the human huntingtin gene with an extension of 160 f 5 CAG repeats. Mice have a severe phenotype that develops between 4 and 12 weeks.
Treatment groups were established from genotype and measurement of weight, rotarod performance and litter. They were distributed equally over the four groups, each group contained 12 animals. R6/2 mice and their wt counterparts were dosed in the following treatment groups: 1. Wt, vehicle (20% SBECD in water, pH 3); 2. R6/2 vehicle (20% SBECD in water, pH 3); 3. R6/2 Cpd. 3 (65 mg/kg); 4. R6/2 Cpd.8 (16.25 mg/kg). Per oral dosing was performed for 6 days with a following drug holiday of 1 day for a total of 11.5 weeks.
To detect mutHTT aggregates, immunostaining of striata was performed. […]
Images were acquired using a Zeiss Axioplan microscope (Plan-NEOFLUAR×40/0.75 objective, AxioCam MRc) and Axiovision 4.8 software (Carl Zeiss Microscopy GmbH, Jena, Germany). Per animal three subsequent sections of the striatum were analyzed, 4 animals were analysed The EM48 positive structures were analyzed with the ImageJ built in particle analysis, with a fixed threshold for all pictures (ImageJ 1.47v; NIH, Bethesda, MD, USA). […]

The subject of series [2] is mTOR signaling cascade (phosphorylation of S6rP and AKT). Briefly: Target engagement in brain and thigh muscle (western blot). It is filed as in vivo, mouse. To be noted: single oral 50 mg/kg. As for the experimental part: Tissue was snap frozen in liquid nitrogen and stored at −80° C. Tissue was thawed and lysed in RIPA buffer 1 ml/half brain. Complete protease inhibitor and PhosStop phosphatase inhibitor (Roche) was added to the buffer before lysis. Tissue was homogenized manually and centrifuged twice at 16000 rpm, 4° C. for 20 minutes. Supernatant was frozen with 10% glycerol at −80° C. Protein concentration was performed using Bradford reagent. For western blot analysis of AKT and S6rP phosphorylation, 30 μg of protein was denatured with β-mercaptoethanol at 95° C. and separated on SDS page gels at 100 V. Then proteins were transferred to a nitrocellulose membrane (Bio-Rad, USA) at 80 V. Non-specific binding was blocked with 5% bovine serum albumin (BSA) (Sigma-Aldrich, USA). Membranes were incubated over night with primary antibody dissolved in TBST, 5% BSA at 4° C. and with secondary antibody coupled to horseradish peroxidase (GE Healthcare, UK) for 1 hour at RT and washed. Imaging of protein bands was performed using Luminol (Biozym, Hamburg, Germany. On a Li-Cor Odyssey FC reader. Quantification of S6-phosphorylation was determined with the same imaging system.
The following antibodies were used: • AKT, P-AKT (S473), S6rP, P-S6rP(S235/236): Cell Signaling (UK) • β-actin: Sigma Aldrich, USA
For orientation: In western blotting, separated proteins are transferred to a membrane and probed.

The nature of series [3]: in vivo. To be noted: B57BL/6J, mouse.
Protocol: 8, 50 mg/kg was administered to B57BL/6J mice by gavage. Animals were housed in temperature controlled rooms with free access to food and water. Test items were weighed in a glass vial and dissolved first in DMSO. Tween 80 was added subsequently and finally, the formulation was completed with HPβCD 20%. […] Blood was collected in tubes containing K3-EDTA and stored on ice until centrifugation at 3000×g (10 min. 4° C.). The plasma supernatant was separated and kept at −20° C. until being assayed. Thigh muscle and brain of mice were snap frozen. The brain and muscle samples were homogenized in PBS using the Precellys 24/Dual homogeniser.
Samples were analyzed by LC-MS. Calibration standards were prepared by spiking 20 μl of drug free blank plasma with calibration solution. […] Samples were vigorously shaken and centrifuged for 10 minutes at 6000 g and 20° C. […] An aliquot was transferred to 200 μl sampler vials and subsequently subjected to LC-MS with an injection volume of 1.5 μl.
Series [4] relates to autophagic markers LC3II and p62. The series is described as follows: Induction of autophagy in brain of mice (western blot LC3, p62). It is filed as in vivo, mouse. As to conditions: single oral administration 50 mg/kg. As for the experimental part:
In order to investigate whether mTOR inhibition by Cpd. 3 and Cpd. 8 induces autophagy—the essential mechanism for huntingtin aggregate clearance-in the brain, BALB/c nude mice were treated with Cpd. 3 and Cpd. 8 as described in sample 5.

For series [5], the system named is pS6 S235/S236 in A2058 cells. Briefly: In-cell Western blot, pS6 S235/S236. It is filed as cell-based. To be noted: Homo sapiens, A2058, 1 h, treated for 1 hour, normalized to α-tubulin.
Protocol: (§1) Cells are fixed with 4% paraformaldehyde for 30 minutes at room temperature, washed 2 times with 1% BSA in PBS, permeabilized with 0.1% Triton X-100 in PBS/1% BSA for 30 minutes at room temperature and blocked with 5% goat serum in PBS/1% BSA/0.1% Triton X-100 for 30 minutes at room temperature. […] Cells are washed 3 times 5 minutes with PBS/1% BSA/0.1% triton and plate scanned with the Odyssey Infrared Scanning system using both 700 and 800 nm channels. […] To correct for background staining in the data analysis wells are treated only with secondary antibodies.
(§2) For data analysis the mean background signal from channel 700 nm and 800 nm are subtracted from each signal in channel 700 nm and 800 nm, respectively.
(§3) IC50 values of each compound are determined by plotting the normalized pPBK S473 and pS6 S235/S236 signals, respectively, versus the compound concentrations (in logarithmic scale) and then by fitting a sigmoidal dose-response curve with variable slope to the data using GraphPad™ Prism.
The test system of series [6] is pPKB S473 in A2058 cells. The series is described as follows: In-cell Western blot, pPKB S473. To be noted: Homo sapiens, treated for 1 hour, normalized to α-tubulin. It is filed as cell-based.
Protocol: as §1, §2, §3

Here are results for two compounds from patent US11878972B2, “Treatment of neurological disorders” (TORQUR AG, priority 2016, dated 2024).

For orientation: half-life means the time in which the quantity being followed falls by half. The AUC is the area under the concentration-time curve, a measure of exposure. A higher AUC goes with high exposure. The Tmax is the time from dosing to the highest level. For `Nc1cc(C(F)F)c(-c2nc(N3C4CCC3COC4)nc(N3C4CCC3COC4)n2)cn1` [Compound 3, 5-(4-(3-oxa-8-azabicyclo[3.2.1]octan-8-yl)-6-(3-oxa-8-azabicyclo[3.2.1]octan-8-yl)-1,3,5-triazin-2-yl)-4-(difluoromethyl)pyridin-2-amine], the “number of mutHTT aggregates counted in striata” value in series [1] is on record as “not changed”. Also, in series [2] (B57BL/6J mice), the “phosphorylation of S6rP and AKT in brain and thigh muscle” value was “significantly reduced phosphorylation of S6rP and AKT”. The “S6 phosphorylation in brain lysates” value in series [2] (mice, 30 minutes to 8 hours) is on record as “reduction of S6 phosphorylation”. Besides, the “S6 phosphorylation in thigh muscle lysates” value in series [2] (mice, 30 minutes to 8 hours) is recorded as “reduction of S6 phosphorylation”. For the same compound, the half-life in series [3] (half-life) is 300 min; in series [3] (po, 50 mg/kg, Brain t1/2) it was 300 min; in series [3] (po, 50 mg/kg, Plasma t1/2), 318 min; in series [3] (po, 50 mg/kg, half-life in mice (estimated)), 282 to 288 min. The AUC in series [3] (po, 50 mg/kg) was found to be 20500 ng·h/mL. Besides, the Tmax in series [3] (po, 50 mg/kg) turned out to be 30 min. In addition, the “autophagic marker LC3II in brain” value in series [4] is reported as “time-dependent increase”. Besides, the “autophagic marker p62 in brain” value in series [4] is recorded as “decrease”.
Broadly, the IC50 is the concentration at which inhibition is half-maximal. Consider `C[C@H]1COCCN1c1nc(-c2cnc(N)cc2C(F)F)nc(N2CCOCC2)n1` [Compound 8, (S)-4-(difluoromethyl)-5-(4-(3-methylmorpholino)-6-morpholino-1,3,5-triazin-2-yl)pyridin-2-amine], for which the IC50 amounted to 68 nM in series [5] and 74 nM in series [6].
